What follows are compounds tested against T1, fennel nsLTP1 (Anethum foeniculum, UniProt C0HLP9) (assay: TNS fluorescence displacement). Conditions: 3.5 µM TNS, 4 µM nsLTP1, fatty acid 5-20 µM; 175 mM mannitol, 0.5 mM K2SO4, 0.5 mM CaCl2, 5 mM MES pH 7.0, 25 °C; competitive with TNS.
T1 construct: native mature protein purified from seeds (gel filtration, RP-HPLC); 91 residues, 9433 Da, monomer
T1 sequence (C0HLP9 1-91): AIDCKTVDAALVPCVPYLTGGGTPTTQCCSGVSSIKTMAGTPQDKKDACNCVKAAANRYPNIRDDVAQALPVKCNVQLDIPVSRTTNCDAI
Type: binding

SMILES | % of the control fluorescence (nsLTP1-TNS complex)
CCCCCCCCCCCCCCCC(=O)O [palmitic acid] | 40–69%
CCCCCCCCCCCCCCCCCC(=O)O [stearic acid] | 21–59%
CC/C=C\C/C=C\C/C=C\CCCCCCCC(=O)O [linolenic acid, all-cis-9,12,15-octadecatrienoic acid] | 7–59%
CCCCC/C=C\C/C=C\CCCCCCCC(=O)O [linoleic acid, cis, cis-9,12-Octadecadienoic acid] | 4–40%
